Target: T1, ΔF508-CFTR (Homo sapiens, UniProt P13569, DEL508-508)
T1 construct: expressed in transfected cells
Test: Membrane potential optical assay (FRET/VIPR), identification of correction compounds
Format: cell-based
Settings: for Emax: relative efficacy
Text: I) Membrane Potential Optical Methods for Assaying ΔF508-CFTR Modulation Properties of Compounds
The optical membrane potential assay utilized voltage-sensitive FRET sensors described by Gonzalez and Tsien (See, Gonzalez, J. E. and R. Y. Tsien (1995) “Voltage sensing by fluorescence resonance energy transfer in single cells” Biophys J 69(4): 1272-80, and Gonzalez, J. E. and R. Y. Tsien (1997) “Improved indicators of cell membrane potential that use fluorescence resonance energy transfer” Chem Biol 4(4): 269-77) in combination with instrumentation for measuring fluorescence changes such as the Voltage/Ion Probe Reader (VIPR) (See, Gonzalez, J. E., K. Oades, et al. (1999) “Cell-based assays and instrumentation for screening ion-channel targets” Drug Discov Today 4(9): 431-439).
These voltage sensitive assays are based on the change in fluorescence resonant energy transfer (FRET) between the membrane-soluble, voltage-sensitive dye, DiSBAC2(3), and a fluorescent phospholipid, CC2-DMPE, which is attached to the outer leaflet of the plasma membrane and acts as a FRET donor. Changes in membrane potential (Vm) cause the negatively charged DiSBAC2(3) to redistribute across the plasma membrane and the amount of energy transfer from CC2-DMPE changes accordingly. The changes in fluorescence emission were monitored using VIPR™ II, which is an integrated liquid handler and fluorescent detector designed to conduct cell-based screens in 96- or 384-well microtiter plates.
Identification of Correction Compounds
To identify small molecules that correct the trafficking defect associated with ΔF508-CFTR; a single-addition HTS assay format was developed. The cells were incubated in serum-free medium for 16 hrs at 37° C. in the presence or absence (negative control) of test compound. As a positive control, cells plated in 384-well plates were incubated for 16 hrs at 27° C. to “temperature-correct” ΔF508-CFTR. The cells were subsequently rinsed 3× with Krebs Ringers solution and loaded with the voltage-sensitive dyes. To activate ΔF508-CFTR, 10 μM forskolin and the CFTR potentiator, genistein (20 μM), were added along with Cl^−-free medium to each well. The addition of Cl^−-free medium promoted Cl^− efflux in response to ΔF508-CFTR activation and the resulting membrane depolarization was optically monitored using the FRET-based voltage-sensor dyes.
NIH3T3 mouse fibroblasts stably expressing ΔF508-CFTR are used for optical measurements of membrane potential. The cells are maintained at 37° C. in 5% CO2 and 90% humidity in Dulbecco's modified Eagle's medium supplemented with 2 mM glutamine, 10% fetal bovine serum, 1×NEAA, β-ME, 1× pen/strep, and 25 mM HEPES in 175 cm^2 culture flasks. For all optical assays, the cells were seeded at 30,000/well in 384-well matrigel-coated plates and cultured for 2 hrs at 37° C. before culturing at 27° C. for 24 hrs. for the potentiator assay. For the correction assays, the cells are cultured at 27° C. or 37° C. with and without compounds for 16-24 hours B) Electrophysiological Assays for assaying ΔF508-CFTR modulation properties of compounds

T1 sequence (P13569 with tags, fused parts or gaps DEL508-508): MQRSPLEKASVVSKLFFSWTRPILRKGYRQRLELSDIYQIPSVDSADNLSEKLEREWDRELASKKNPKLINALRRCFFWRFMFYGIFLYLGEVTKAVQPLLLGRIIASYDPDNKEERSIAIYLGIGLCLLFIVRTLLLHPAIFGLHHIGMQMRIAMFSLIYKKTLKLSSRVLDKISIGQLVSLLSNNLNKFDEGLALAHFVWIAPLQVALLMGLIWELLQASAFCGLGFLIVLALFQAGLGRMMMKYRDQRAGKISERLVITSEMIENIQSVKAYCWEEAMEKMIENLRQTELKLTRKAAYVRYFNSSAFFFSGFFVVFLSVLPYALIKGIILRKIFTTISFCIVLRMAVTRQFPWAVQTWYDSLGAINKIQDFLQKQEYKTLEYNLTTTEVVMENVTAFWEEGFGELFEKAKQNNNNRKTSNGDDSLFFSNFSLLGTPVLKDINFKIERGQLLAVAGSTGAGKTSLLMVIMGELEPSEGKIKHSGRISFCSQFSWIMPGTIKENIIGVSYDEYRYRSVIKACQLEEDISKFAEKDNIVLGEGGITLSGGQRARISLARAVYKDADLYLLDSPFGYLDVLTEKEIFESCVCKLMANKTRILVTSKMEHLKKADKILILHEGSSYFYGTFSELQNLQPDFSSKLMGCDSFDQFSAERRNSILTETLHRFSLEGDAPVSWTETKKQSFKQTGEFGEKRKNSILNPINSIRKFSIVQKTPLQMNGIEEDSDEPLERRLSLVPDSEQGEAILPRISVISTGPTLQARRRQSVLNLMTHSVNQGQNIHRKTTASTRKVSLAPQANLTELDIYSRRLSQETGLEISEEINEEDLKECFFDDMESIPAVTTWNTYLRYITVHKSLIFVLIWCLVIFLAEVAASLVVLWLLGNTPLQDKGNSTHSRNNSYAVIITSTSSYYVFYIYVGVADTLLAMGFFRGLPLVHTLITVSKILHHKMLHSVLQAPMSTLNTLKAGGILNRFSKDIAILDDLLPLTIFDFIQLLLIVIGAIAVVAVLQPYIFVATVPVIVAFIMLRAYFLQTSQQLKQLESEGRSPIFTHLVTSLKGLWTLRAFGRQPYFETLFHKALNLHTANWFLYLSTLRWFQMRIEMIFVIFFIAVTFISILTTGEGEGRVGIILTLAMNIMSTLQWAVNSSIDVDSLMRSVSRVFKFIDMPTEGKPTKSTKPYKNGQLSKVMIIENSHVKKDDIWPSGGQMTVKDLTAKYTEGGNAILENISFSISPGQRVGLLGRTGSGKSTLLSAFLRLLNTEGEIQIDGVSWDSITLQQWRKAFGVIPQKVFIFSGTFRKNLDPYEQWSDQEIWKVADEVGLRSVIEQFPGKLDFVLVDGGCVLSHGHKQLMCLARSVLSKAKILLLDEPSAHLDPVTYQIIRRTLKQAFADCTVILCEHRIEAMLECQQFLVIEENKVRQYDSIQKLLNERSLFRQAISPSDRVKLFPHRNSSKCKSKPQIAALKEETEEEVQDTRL

Row | Compound | EC50 [µM] | Emax [%]
1 | CC(c1nc2ccccc2c(=O)n1C)N1CCN(C(=O)c2ccc(C(F)(F)F)cc2)CC1 (centres unmarked) [compound 54] | 25 to 60 | 25 to 100
2 | CC(c1nc2ccccc2c(=O)n1C)N1CCN(C(=O)c2ccc(Br)cc2)CC1 (centres unmarked) [compound 55] | 10 to 25 | < 25
3 | Cc1ccc(NC(=O)N2CCN(C(C)c3nc4ccccc4c(=O)n3C)CC2)cc1 (centres unmarked) [compound 56] | 10 to 25 | < 25
4 | Cc1cccc(C(=O)N2CCN(C(C)c3nc4ccccc4c(=O)n3C)CC2)c1 (centres unmarked) [compound 57] | 25 to 60 | < 25
5 | Cc1ccc(C(=O)N2CCN(C(C)c3cc4ccc(Cl)cc4c(=O)n3C)CC2)cc1 (centres unmarked) [compound 58] | 10 to 25 | < 25
6 | Cc1cccc(C(=O)N2CCN(C(C)c3nc4ccc(Cl)cc4c(=O)n3C)CC2)c1 (centres unmarked) [compound 59] | 25 to 60 | 25 to 100
7 | CC(=O)N1CCN(C(C)c2nc3ccc(Cl)cc3c(=O)n2C)CC1 (centres unmarked) [compound 60] | 25 to 60 | < 25
8 | CC(c1nc2ccccc2c(=O)n1C)N1CCN(S(=O)(=O)c2cccc(Cl)c2)CC1 (centres unmarked) [compound 61] | 10 to 25 | 25 to 100
9 | COc1ccc(S(=O)(=O)N2CCN(C(C)c3nc4ccc(Cl)cc4c(=O)n3C)CC2)cc1 (centres unmarked) [compound 62] | < 10 | 25 to 100
10 | CC(c1nc2ccc(Cl)cc2c(=O)n1C)N1CCN(S(=O)(=O)c2ccccc2Cl)CC1 (centres unmarked) [compound 63] | 10 to 25 | < 25
11 | CC(c1nc2ccc(Cl)cc2c(=O)n1C)N1CCN(S(=O)(=O)c2cccc(Cl)c2)CC1 (centres unmarked) [compound 64] | 10 to 25 | 25 to 100
12 | Cn1c(CN2CCN(S(=O)(=O)c3ccccc3)CC2)nc2ccc(Cl)cc2c1=O [compound 65] | 10 to 25 | < 25
13 | Cc1ccc(S(=O)(=O)N2CCN(Cc3nc4ccc(Cl)cc4c(=O)n3C)CC2)cc1 [compound 66] | 25 to 60 | < 25
14 | Cn1c(CN2CCN(S(=O)(=O)c3ccc(Cl)cc3)CC2)nc2ccc(Cl)cc2c1=O [compound 67] | 10 to 25 | 25 to 100
15 | CC(c1nc2ccccc2c(=O)n1C)N1CCN(S(=O)(=O)c2ccccc2)CC1 (centres unmarked) [compound 68] | 25 to 60 | 25 to 100
16 | Cc1ccccc1S(=O)(=O)N1CCN(C(C)c2nc3ccccc3c(=O)n2C)CC1 (centres unmarked) [compound 69] | 25 to 60 | 25 to 100
17 | CC(c1nc2ccccc2c(=O)n1C)N1CCN(S(=O)(=O)c2ccc(C(F)(F)F)cc2)CC1 (centres unmarked) [compound 70] | < 10 | 25 to 100
18 | CC(c1nc2ccc(Cl)cc2c(=O)n1C)N1CCN(S(=O)(=O)c2ccccc2)CC1 (centres unmarked) [compound 71] | 10 to 25 | 25 to 100
19 | COc1ccc(S(=O)(=O)N2CCN(C(C)c3nc4ccc(Cl)cc4c(=O)n3C)CC2)cc1OC (centres unmarked) [compound 72] | 10 to 25 | 25 to 100
20 | CC(c1nc2ccc(Cl)cc2c(=O)n1C)N1CCN(S(=O)(=O)c2ccc(C(F)(F)F)cc2)CC1 (centres unmarked) [compound 73] | < 10 | 25 to 100
21 | Cc1ccc(C(=O)N2CCN(C(C)c3nc4ccccc4c(=O)n3C)CC2)cc1 (centres unmarked) [compound 74] | 10 to 25 | < 25
22 | CC(c1nc2ccccc2c(=O)n1C)N1CCN(C(=O)c2cccc(Cl)c2)CC1 (centres unmarked) [compound 75] | 25 to 60 | < 25
23 | COc1ccc(C(=O)N2CCN(C(C)c3nc4ccccc4c(=O)n3C)CC2)cc1OC (centres unmarked) [compound 76] | 10 to 25 | < 25
24 | COc1ccc(C(=O)N2CCN(C(C)c3nc4ccc(Cl)cc4c(=O)n3C)CC2)cc1OC (centres unmarked) [compound 77] | 25 to 60 | < 25
25 | CC(c1nc2ccc(Cl)cc2c(=O)n1C)N1CCN(C(=O)c2ccc(C(F)(F)F)cc2)CC1 (centres unmarked) [compound 78] | 10 to 25 | < 25
26 | CC(c1nc2ccccc2c(=O)n1C)N1CCN(S(C)(=O)=O)CC1 (centres unmarked) [compound 79] | 25 to 60 | < 25
27 | Cc1ccccc1S(=O)(=O)N1CCN(C(C)c2nc3ccc(Cl)cc3c(=O)n2C)CC1 (centres unmarked) [compound 80] | 10 to 25 | 25 to 100
28 | COc1ccc(C(=O)N2CCN(C(C)c3nc4ccccc4c(=O)n3C)CC2)cc1 (centres unmarked) [compound 81] | 25 to 60 | < 25

Row | Compound | EC50 [µM] | Emax [%]
29 | CC(c1nc2ccccc2c(=O)n1C)N1CCN(C(=O)c2ccccc2Cl)CC1 (centres unmarked) [compound 82] | 25 to 60 | < 25
30 | CC(c1nc2ccc(Cl)cc2c(=O)n1C)N1CCN(C(=O)c2cccc(Cl)c2)CC1 (centres unmarked) [compound 83] | 10 to 25 | < 25
31 | Cn1c(CN2CCN(S(=O)(=O)c3ccc(Br)cc3)CC2)nc2ccc(Cl)cc2c1=O [compound 84] | 25 to 60 | < 25
32 | Cc1cccc(S(=O)(=O)N2CCN(C(C)c3nc4ccc(Cl)cc4c(=O)n3C)CC2)c1 (centres unmarked) [compound 85] | 10 to 25 | 25 to 100
33 | CC(c1nc2ccc(Cl)cc2c(=O)n1C)N1CCN(S(=O)(=O)Cc2ccccc2)CC1 (centres unmarked) [compound 86] | 10 to 25 | < 25
34 | CCc1nc2ccccc2c(=O)n1C [compound 87] | 25 to 60 | < 25
35 | CCc1nc2ccc(Cl)cc2c(=O)n1C [compound 88] | 25 to 60 | < 25
36 | CCCn1c(C(C)OCC)nc2ccccc2c1=O (centres unmarked) [compound 89] | 25 to 60 | < 25
37 | CC(c1nc2cc(Cl)ccc2c(=O)n1C)N1CCNCC1 (centres unmarked) [compound 90] | 25 to 60 | < 25
38 | CC(c1nc2cc(Cl)ccc2c(=O)n1C)N1CCN(S(=O)(=O)c2ccccc2)CC1 (centres unmarked) [compound 91] | 10 to 25 | 25 to 100
39 | Cc1ccc(S(=O)(=O)N2CCN(C(C)c3nc4cc(Cl)ccc4c(=O)n3C)CC2)cc1 (centres unmarked) [compound 92] | < 10 | > 100
40 | COc1ccc(S(=O)(=O)N2CCN(C(C)c3nc4cc(Cl)ccc4c(=O)n3C)CC2)cc1 (centres unmarked) [compound 93] | < 10 | 25 to 100
41 | CC(c1nc2cc(Cl)ccc2c(=O)n1C)N1CCN(S(=O)(=O)c2ccc(Cl)cc2)CC1 (centres unmarked) [compound 94] | < 10 | 25 to 100
42 | CC(c1nc2cc(Cl)ccc2c(=O)n1C)N1CCN(S(=O)(=O)c2ccc(Br)cc2)CC1 (centres unmarked) [compound 95] | < 10 | 25 to 100
43 | Cc1cccc(S(=O)(=O)N2CCN(C(C)c3nc4cc(Cl)ccc4c(=O)n3C)CC2)c1 (centres unmarked) [compound 96] | < 10 | 25 to 100
44 | CC(c1nc2cc(Cl)ccc2c(=O)n1C)N1CCN(S(=O)(=O)c2cccc(Cl)c2)CC1 (centres unmarked) [compound 97] | < 10 | 25 to 100
45 | CC(c1nc2cc(Cl)ccc2c(=O)n1C)N1CCN(S(=O)(=O)c2ccc(C(F)(F)F)cc2)CC1 (centres unmarked) [compound 98] | < 10 | 25 to 100
46 | CC(c1nc2cc(Cl)ccc2c(=O)n1C)N1CCN(S(=O)(=O)c2ccc(OC(F)(F)F)cc2)CC1 (centres unmarked) [compound 99] | < 10 | 25 to 100
47 | COc1ccc(S(=O)(=O)N2CCN(C(C)c3nc4cc(Cl)ccc4c(=O)n3C)CC2)cc1OC (centres unmarked) [compound 100] | 10 to 25 | 25 to 100
48 | CC(c1nc2cc(Cl)ccc2c(=O)n1C)N1CCN(C(=O)c2cccc(C(F)(F)F)c2)CC1 (centres unmarked) [compound 101] | 10 to 25 | 25 to 100
49 | CCc1nc2cccc(Cl)c2c(=O)n1C [compound 102] | 25 to 60 | < 25
50 | CC(c1nc2cccc(Cl)c2c(=O)n1C)N1CCN(S(=O)(=O)c2ccccc2)CC1 (centres unmarked) [compound 103] | 10 to 25 | < 25
51 | CC(c1nc2cccc(Cl)c2c(=O)n1C)N1CCN(S(=O)(=O)c2ccc(Cl)cc2)CC1 (centres unmarked) [compound 104] | 10 to 25 | < 25
52 | CC(c1nc2cccc(Cl)c2c(=O)n1C)N1CCN(S(=O)(=O)c2ccc(Br)cc2)CC1 (centres unmarked) [compound 105] | 10 to 25 | 25 to 100
53 | COc1ccc(S(=O)(=O)N2CCN(C(C)c3nc4cccc(Cl)c4c(=O)n3C)CC2)cc1 (centres unmarked) [compound 106] | 10 to 25 | < 25
54 | Cc1ccc(S(=O)(=O)N2CCN(C(C)c3nc4cccc(Cl)c4c(=O)n3C)CC2)cc1 (centres unmarked) [compound 107] | 10 to 25 | < 25
55 | CC(c1nc2cc(Cl)ccc2c(=O)n1C)N1CCN(S(C)(=O)=O)CC1 (centres unmarked) [compound 108] | 10 to 25 | < 25

Source: patent US8642609B2, “Modulators of ATP-binding cassette transporters” (Vertex Pharmaceuticals Incorporated, priority 2003, dated 2014)
